Source: patent publication US20110117588A1, “METHOD OF PREDICTING DRUG-INDUCED PHOSPHOLIPIDOSIS” (KYUSHU UNIVERSITY, NATIONAL UNIVERSITY CORPORATION, priority 2007, published 2011)
Where two headings read alike, the source gives them in different places.

How the values were obtained:
[1] = system: NRK cells; test: β-hexosaminidase activity in the medium after exposure of NRK cells
Source text: On the other hand, the activity of lysosomal enzyme can be measured using an activity measurement method by known per se for each enzyme. For example, lysosomal enzyme can be quantified by contacting a sample with a substrate compound for a lysosomal enzyme, which emits fluorescence or develops color by an enzyme reaction, and measuring the intensity of the resulting fluorescence or developed color by a fluorometer, spectrophotometer and the like. For example, as a measurement method of β-hexosaminidase, β-galactosidase, β-glucuronidase or β-mannosidase, the method described in The EMBO Journal, 12: 5219-5223 (1993) can be mentioned, as a measurement method of cathepsin D, the method described in J. Biochem, 125: 1137-1143 (1999) can be mentioned, and as a measurement method of cathepsin B/L, the method described in Methods in Enzymology, 80: 535-561 (1981) can be mentioned.
Furthermore, the activity of β-hexosaminidase in the medium was measured by a conventional method.

[2] = system: NRK cells; test: Intracellular and extracellular cathepsin D and cathepsin L levels by Western blotting; type: cell-based, rat
Procedure: In the case of cathepsin D (CTD), it is biosynthesized as an about 45 kDa proenzyme in rat cell (NRK), and processed in the acidic environment of lysosome to become an about 43 kDa mature enzyme.
Therefore, NRK cells were exposed to 0 (control), 5, 10, 20, 40 and 80 μM of AD for 24 hr, and lysosomal enzyme (CTD and cathepsin L (CTL)) levels in the cell and medium were measured by Western blotting using an antibody to these enzymes. To be specific, immunoprecipitates against anti-CTD antibody in cell lysate and medium or the cell lysate and medium for CTL were subjected to Western blot analysis using an anti-CTD antibody or anti-CTL antibody. […] Therefore, it was also shown that increased lysosomal enzyme in the medium was not caused by extracellular leakage due to cell damage and the like, but by selective extracellular secretion thereof.
(§1) On the other hand, CTL is biosynthesized as an about 39 kDa proenzyme, and converted to a 30 kDa single strand intermediate enzyme and a 23 kDa and 7 kDa double stranded mature enzyme during the process of intracellular transport. […] While CTD increased the enzyme activity in the medium in an AD dose-dependent manner, CTL caused no change. The reason therefor is considered to be the measurement of CTD activity at pH 4.0 where autocatalytic processing occurs, and the measurement of CTL activity at pH 6.0 where processing scarcely occurs.

[3] = system: NRK cells; test: Localization of MPR in NRK cells by confocal laser microscope with antibody; conditions: 24 hr exposure, concentration at which localization altered
[4] = system: NRK cells
[5] = system: NRK cells; test: Swelling of late endosome/lysosome (LGP85 staining) and phospholipid accumulation (Nile Red) in NRK cells; type: cell-based, rat
Procedure: The cells were cultured in a DMEM medium supplemented with lipoprotein-deficient serum to 10% instead of normal fetal bovine serum, and morphological changes of lysosome and the presence or absence of phospholipid accumulation due to exposure to AD under the conditions free of extracellular supply of lipoprotein were examined.

[6] = system: NRK cells; test: Extracellular and intracellular lysosomal enzyme activity after exposure of NRK cells; type: cell-based, rat; conditions: 24 hr
Procedure: NRK cells were exposed to 0 (solvent control), 5, 10, 20, 40 and 80 μM of AD for 24 hr, and lysosomal enzyme activities in the cell and medium were measured by a conventional method.
as §1

[7] = system: NRK cells; test: Intracellular LC3 level by Western blotting and confocal microscopy; type: cell-based; conditions: 20 μM; for LC3-II level: Western blot
Procedure: NRK cells were exposed to 20 μM of AD for 1, 3, 6, 12 and 24 hr, and the level of LC3 (microtuble-associated protein 1 light chain 3), which is an autophagy marker, in each cell was measured by Western blotting using an antibody to the protein. That is, cell lysate was subjected to Western blot analysis using an anti-LC3 antibody.
NRK cells were exposed to various PLIDs for 24 hr, and the intracellular level of LC3 was measured by western blotting.

Cl.N [NH4Cl, ammonium chloride]
β-hex activity increase ([1]; NRK cells, 24 hr exposure, concentration at which β-hexosaminidase activity in medium increased): >1000 µM | ratio of intracellular cathepsin D proenzyme ([2]; NRK cells, 24 hr, Western blot of cell lysate immunoprecipitate): the ratio of intracellular proenzyme increased | cathepsin D proenzyme in the medium ([2]; NRK cells, 24 hr, Western blot of medium immunoprecipitate): the amount of proenzyme secreted in the medium increased | alteration of MPR localization [3]: >5 mM

CCN(CC)CCO[C@H]1CC[C@@]2(C)C(=CC[C@@H]3[C@@H]2CC[C@]2(C)C(=O)CC[C@@H]32)C1 [U18666A]
β-hex activity increase ([1]; rat, 24 h): 3 µg/mL | alteration of MPR localization ([4]; rat, 24 h): 3 µg/mL

CCCCc1oc2ccccc2c1C(=O)c1cc(I)c(OCCN(CC)CC)c(I)c1 [amiodarone]
β-hex activity increase ([1]; rat, 24 h): >10 µM | accumulation of phospholipid ([5]; NRK cells in DMEM with 10% lipoprotein-deficient serum): accumulation of phospholipid was found at the site | late endosome/lysosome morphology (LGP85) ([5]; NRK cells in DMEM with 10% lipoprotein-deficient serum, various concentrations, 24 hr): enlargement of late endosome/lysosome occurred in an AD dose-dependent manner | accumulation of phospholipid (Nile Red staining) ([5]; NRK cells, 24 hr exposure): accumulation of phospholipid was found | late endosome/lysosome morphology (LGP85 antibody) ([5]; NRK cells, 24 hr exposure): enlarged | activity of α-glucosidase (endoplasmic reticulum enzyme) ([6]; 5-80 μM): changed only at 80 μM | intracellular lysosomal enzyme activity ([6]; 5-80 μM): decreased | lysosomal enzyme activity in the medium ([6]; 5-80 μM): increased in an AD dose-dependent manner | CTL activity in the medium ([6]; 5-80 μM, measured at pH 6.0): changed only at 80 μM | intracellular CTL activity ([6]; 5-80 μM, measured at pH 6.0): decreased in a dose-dependent manner | concentration showing cytotoxicity [6]: 80 µM | CTL proenzyme in the medium [2]: only proenzyme increased in an AD dose-dependent manner | cathepsin D proenzyme in the medium [2]: only proenzyme increased in an AD dose-dependent manner | ratio of CTL mature enzyme in the cell [2]: decreased in an AD dose-dependent manner | ratio of CTL proenzyme in the cell [2]: the ratio of proenzyme increased | ratio of intracellular cathepsin D proenzyme [2]: increased in a dose-dependent manner | granular staining with LC3 in the cell ([7]; 1-24 hr, confocal laser microscope): increased in a time-dependent manner | LC3-II level ([7]; 12 and 24 hr): remarkably increased | LC3-II level ([7]; 3 hr): increased | alteration of MPR localization [4]: altered | alteration of MPR localization ([4]; rat, 24 h): >10 µM

CC1(C)S[C@@H]2[C@H](NC(=O)[C@H](N)c3ccc(O)cc3)C(=O)N2[C@H]1C(=O)O [amoxicillin]
β-hex activity increase [1]: none | alteration of MPR localization [4]: none

CC(=O)Oc1ccccc1C(=O)O [aspirin]
β-hex activity increase [1]: none | alteration of MPR localization [4]: none

C[C@H](CS)C(=O)N1CCC[C@H]1C(=O)O [captopril]
β-hex activity increase [1]: none

CCN(CC)CCCC(C)Nc1ccnc2cc(Cl)ccc12 (stereo not drawn) [chloroquine]
β-hex activity increase ([1]; rat, 24 h): >5 µM | cathepsin D proenzyme in the medium [2]: the amount of proenzyme secreted in the medium increased | ratio of intracellular cathepsin D proenzyme [2]: the ratio of intracellular proenzyme increased | alteration of MPR localization ([4]; rat, 24 h): >5 µM

CN(C)CCCN1c2ccccc2Sc2ccc(Cl)cc21 [chlorpromazine]
β-hex activity increase ([1]; rat, 24 h): 20 µM

CC[C@H]1OC(=O)[C@H](C)[C@@H](O[C@H]2C[C@@](C)(OC)[C@@H](O)[C@H](C)O2)[C@H](C)[C@@H](O[C@@H]2O[C@H](C)C[C@H](N(C)C)[C@H]2O)[C@](C)(O)C[C@@H](C)C(=O)[C@H](C)[C@@H](O)[C@]1(C)O [erythromycin]
β-hex activity increase ([1]; rat, 24 h): >400 µM

O=C(CCCN1CCC(O)(c2ccc(Cl)cc2)CC1)c1ccc(F)cc1 [haloperidol]
β-hex activity increase ([1]; rat, 24 h): >10 µM | alteration of MPR localization ([4]; rat, 24 h): >20 µM

CN(C)CCCN1c2ccccc2CCc2ccccc21 [imipramine]
β-hex activity increase ([1]; rat, 24 h): >40 µM

CNCCCC12CCC(c3ccccc31)c1ccccc12 [maprotiline]
β-hex activity increase ([1]; rat, 24 h): >20 µM | alteration of MPR localization ([4]; rat, 24 h): 20 µM

C1CCC(C(CC2CCCCN2)C2CCCCC2)CC1 (stereo not drawn) [perhexiline]
β-hex activity increase ([1]; rat, 24 h): 5 µM | alteration of MPR localization ([4]; rat, 24 h): 2.5 µM

C=C[C@H]1C[N@@]2CC[C@H]1C[C@@H]2[C@@H](O)c1ccnc2ccc(OC)cc12 [quinidine]
β-hex activity increase ([1]; rat, 24 h): 100 µM

CC/C(=C(\c1ccccc1)c1ccc(OCCN(C)C)cc1)c1ccccc1 [tamoxifen]
β-hex activity increase ([1]; rat, 24 h): >10 µM | alteration of MPR localization ([4]; rat, 24 h): 10 µM

CSc1ccc2c(c1)N(CCC1CCCCN1C)c1ccccc1S2 (stereo not drawn) [thioridazine]
β-hex activity increase ([1]; rat, 24 h): 10 µM | alteration of MPR localization ([4]; rat, 24 h): 10 µM

CCN(CC)CCOc1ccc2c(c1)C(=O)c1cc(OCCN(CC)CC)ccc1-2 [tilorone]
β-hex activity increase ([1]; rat, 24 h): >2.5 µM | cathepsin D proenzyme in the medium [2]: the amount of proenzyme secreted in the medium increased | ratio of intracellular cathepsin D proenzyme [2]: the ratio of intracellular proenzyme increased | alteration of MPR localization ([4]; rat, 24 h): >5 µM
